Data set [1] relates to MCF-7 cells. As to the kind of experiment: Estrogenicity assay, mitogenic endpoint (ESCREEN). Particulars: for Signs of estrogenicity (in words): chemical screened as potential modulator, tested alone; for Emax: MCF7, read-out: Concentration Response Function θ^∧ max. The method, then: The ESCREEN assay was performed using cloned MCF-7 cells (described in [6], gifted from A. Soto, Boston) and the established ESCREEN method was followed using an adapted 96-well format. Cells were cultured in DMEM (5% FCS). For experiments, cells were seeded in clear polystyrene 96 well plates at a density of 2,500 cells/well and allowed to attach for 24 hours before washing with rinse media (phenol red-free DMEM, no supplements). […] Test chemicals were dissolved in ethanol to give stock solutions of millimolar concentrations. Test and control solutions were diluted prior to application in dosing media (phenol red free DMEM, 10% charcoal-dextran stripped FCS). The final concentration of ethanol was 0.5% in test and control wells. […] At all stages, media removal from cells was carried out gently and in a controlled fashion by use of an electronic multichannel pipette set to the lowest speed possible. Controls were run as eight replicate wells per plate and compounds were tested in a dilution series comprising eight concentrations, each concentration tested in two replicate wells per plate. The plate layout was designed to reduce variation due to evaporation and spreading of test chemicals, and had been previously optimised in the laboratory. After application of test solutions, plates were incubated for 120 hours before fixation with 10% trichloroacetic acid and sulforhodamine B (SRB) staining to measure protein and allow the indirect quantification of cell number.
(§1) Experiments were performed on different days meaning that results for different dilution series and different batches of the test chemicals were obtained on different days. Each single chemical was tested in three or more independent experiments. Use of normalisation meant that data from different experiments could be reliably combined and compared, as discussed previously. Data was expressed relative to the positive control, rather than as fold change from the vehicle response, for two reasons.
(§2) Results from regression analysis for each test chemicals were used to predict the CA effect for fixed-ratio mixtures designed on 1) equi-effective concentrations (balanced design), 2) possible human serum levels (non-balanced design). The original mathematical formulation of CA that defines for a mixture composed of n components with concentration c1 of the first component, c2 of the second component, and cn for the n-th component a combination effect X is [drawing 1] (1) Here, ECX1, ECX1 …, ECXn are the concentrations of the individual components that on their own produce the same effect X as the mixture, [15] The quotients cn/ECXn are called toxic units and scale all compounds in the mixture relative to their toxicity. They can be interpreted as the contribution of the compound to the total mixture concentration that is expected to produce the mixture effect X. According to equation 1, a mixture effect for a pre-defined effect level X is described only implicitly. However, if the individual concentrations ci are expressed as relative fractions pi to the total mixture concentration ECxMix, then equation 1 can be re-arranged to [drawing 2] (2) which allows the direct calculation of the mixture concentration that is expected to produce the mixture effect X. To form a prediction curve, equation 2 is iterated through for various effect levels resulting in sets of effects and their associated predicted mixture concentration which are then plotted to produce a graph of the effect prediction.
Both equations 1 and 2 require knowledge of the concentration of each mixture component that on its own produces the effect magnitude under consideration. For this reason, these equations cannot be used for predicting mixture effects that exceed the maximal effect of the least efficacious component, because those effect concentrations cannot be defined.

In data set [2] the test system is MCF-7 cells. Kind of data set: Modulation studies (ESCREEN only): effect of potential modulators on the response evoked by a reference mixture of estrogens (REFmix). Type of data set: cell-based, human. Particulars: for Modulation of the REFmix effect (in words) / Concentration at which suppression of the ESCREEN response to REFmix began: ESCREEN; for Observed modulation: ESCREEN response to REFmix (Mixture 3d, ca. 50% effect), screening, one experiment; for Concentration at which suppression of the ESCREEN response to REFmix began: individual modulator screening. An excerpt:
Modulation studies comprised screening of individual modulators in low power experiments accompanied by parallel testing of an equimolar mixture of all modulators. This combination of low power screening and mixture testing provides the opportunity to assess a high number of chemicals (16 in this case) without a prohibitive amount of experimental effort. In this case the effects of 16 modulators could be evaluated using a total of 19 experimental plates (16 for screening and 3 for mixture testing).
To normalize for small changes in the absolute value of the positive control and the control response to the selected REFmix concentration, the response evoked by the REFmix control on each plate was defined as the 50% effect and all modulator study results are normalized to that value.
A mixture of modulators (MODmix) was also tested and was composed with a fixed ratio of equimolar concentrations, since the activity of each modulator was not known at the time of designing the mixture.
In these modulator studies, we examined 16 single chemicals (listed in Table 7) and an equimolar mixture of all 16 components for their ability to modulate the effects of a reference mixture (REFmix) which contained 14 food additives and contaminants (Table 1, Mixture 3d). […] Single chemicals were tested individually in single experiments (screening) and then a mixture composed using a fixed ratio of equal molarities was subjected to repeated testing.
Figure 5 Results of modulation studies. […] Experimental results are shown as grey circles representing each replicate (duplicate testing within the assay) and obtained in three independent (A) or one (B–Q) experiment (s). Experimental results were normalized by setting the value observed for the REFmix alone, the concentration of which was selected to evoke a […] of ca. 50%, to 0.5. The positive control values (black circles, eight replicates per experimental plate, 25 nM estradiol) are indicated adjacent to the y-axis. […] A black line indicates a LOESS spline fit to the data (A–Q) and a grey line indicates linear regression fit to the data for individual modulators (B–Q). A vertical dotted line is drawn at a mixture concentration of 1.6 µM (A) or at the concentration of each modulator present at that mixture concentration (0.1 uM, B–Q). Visual inspection of the individual modulator results (B–Q) was used to identify possible modulation, i.e. when the experimental data appears to deviate from the linear regression, or when the linear regression is not horizontal, and when the magnitude of the modulation is outside the variation expected in the assay.

Data set [3] concerns T47D-KBluc cells. As to the kind of experiment: cells. The method, then: T47D-KBluc cells were obtained from the ATCC and the protocol established by the depositing authors was followed. Cells were routinely grown in RPMI media (with 10% foetal calf serum (FCS)). For seven days prior to experiments, cells were maintained in low estrogen conditions by the use of pre-assay media (RPMI, 10% charcoal-dextran stripped FCS, no antibiotics). For experiments, cells were seeded in white polystyrene 96 well plates at a density of 10,000 cells/well and allowed to attach for 24 hours before removal of media, and application of test chemicals. Test chemicals were dissolved in ethanol to give stock solutions of millimolar concentrations. Test and control solutions were obtained by dilution of ethanolic stocks in dosing media (phenol red-free RPMI, 5% charcoal-dextran stripped FCS, no antibiotics), and in all cases the final concentration of ethanol was 0.5%. The positive control was 1 nM estradiol. Positive and vehicle controls were run as eight replicate wells per plate, and compounds were tested in a dilution series comprising eight concentrations, each concentration tested in triplicate. As recommended by Wilson et al. two additional controls were also included on each plate: 1) vehicle control plus an antiestrogen, ICI 182,780 (1 µM), and 2) positive control plus ICI 182,780 (1 µM). […] A crude measure of toxicity was provided by comparing values for treatments that were not positive, with the value of the vehicle control. […] 24 hours after application of test and control solutions, a volume of Steady-Glo assay reagent (Promega) equal to the volume of culture media was added and plates were incubated for ten minutes, with shaking, to allow for cell lysis. Plates were then loaded into a plate reader (FLUOstar Optima, BMG Labtech) and incubated for a further ten minutes in the dark, followed by measurement of luminescence. To reduce variation, the temperature of the plate reader chamber was maintained at 27°C throughout.
as §1
Effect concentrations (ECx) were defined relative to the effects of the estradiol concentration used as the positive control, for example EC50 is the concentration producing an effect of 50% of the positive control (estradiol, 1 nM (ERLUX) or 25 nM (ESCREEN)).
as §2, with “implicitly.” for “implicitly. However, if the individual concentrations ci are expressed as relative fractions pi to the total mixture concentration ECxMix, then equation 1 can be re-arranged to [drawing 2] (2) which allows the direct calculation of the mixture concentration that is expected to produce the mixture effect X. To form a prediction curve, equation 2 is iterated through for various effect levels resulting in sets of effects and their associated predicted mixture concentration which are then plotted to produce a graph of the effect prediction.”

The mark [4] stands for this setting: Homo sapiens, read-out: Concentration Response Function θ^∧ max.

Entries after “also recorded” stand apart in the source; their conditions may differ. Read-outs that look alike come from different tables or passages of the source.

Regarding `COc1ccc(O)c(C(C)(C)C)c1` [BHA, Butylated hydroxyl anisole], in data set [1] (ESCREEN), the “Signs of toxicity (in words)” value is given as “None” and the “Signs of estrogenicity (in words)” value is given as “None”. In data set [2], the “Modulation of the REFmix effect (in words)” value (“Modulation … (in words)” below) is “possible negative modulation” and the Observed modulation entry is on record as “Possible negative”.

Regarding `Cc1cc(C(C)(C)C)c(O)c(C(C)(C)C)c1` [BHT, Butylated hydroxytoluene], in data set [1] (ESCREEN), the “Signs of toxicity (in words)” value is “None” and the “Signs of estrogenicity (in words)” value was “None”. In addition, in data set [2], the “Modulation … (in words)” value is given as “possible negative modulation” and the Observed modulation entry is given as “Possible negative”.

`[Cl][Cd][Cl]` [CdCl2, Cadmium chloride]: the “Signs of estrogenicity (in words)” value in data set [1] (ESCREEN) is recorded as “None”. In data set [2], the “Modulation … (in words)” value is reported as “clear negative modulation; also recorded: showed negative modulation”, the Observed modulation result is given as “Clear negative” and the “Concentration at which suppression of the ESCREEN response to REFmix began” value is recorded as “around 10 nM”. For the same compound, the “Suppression of the REFmix effect” value in data set [2] (at 10 µM) was 80%.

What is called EC10 is the point of the concentration-response curve where the effect stands at 10%. Broadly, the EC25 is the concentration needed for an effect of 25%. As to `O=c1c(-c2ccc(O)cc2)coc2cc(O)cc(O)c12` [Genistein], the EC10 in data set [3] (Homo sapiens, 24 h) worked out at 0.0124 µM; in data set [1] (Homo sapiens, MCF7, 120 h), 0.00461 µM. The EC25 in data set [3] (Homo sapiens, 24 h) is 0.0196 µM; in data set [1] (Homo sapiens, MCF7, 120 h) it was 0.0136 µM. The Emax is 148% in data set [3] (setting [4]); 200% in data set [3] (Homo sapiens, read-out: Supramaximal response, of estradiol maxima); 93% in data set [1] (Homo sapiens).

In the case of `Cc1cnc2ccc3c(nc(N)n3C)c2n1` [MeIQx, 2-Amino-3,8-dimethyl imidazo [4,5-f] quinoxaline], in data set [1] (ESCREEN), the “Signs of toxicity (in words)” value is given as “None” and the “Signs of estrogenicity (in words)” value is listed as “None”. Besides, in data set [2], the “Modulation … (in words)” value is “no indication of negative modulation” and the Observed modulation result was “None”.

As for `COC(=O)c1ccc(O)cc1` [Methylparaben], the EC10 in data set [3] (Homo sapiens, 24 h) came to 8.14 µM; in data set [1] (Homo sapiens, MCF7, 120 h), 7.64 µM. Further, the EC25 turned out to be 17.1 µM in data set [3] (Homo sapiens, 24 h) and 18 µM in data set [1] (Homo sapiens, MCF7, 120 h). Besides, the results for the Emax in data set [3] (setting [4]) and in data set [1] (Homo sapiens) were 206% and 79%, respectively.

Consider `O=C1C[C@@H](c2ccc(O)cc2)Oc2cc(O)cc(O)c21` [Naringenin], for which the EC10 in data set [3] (Homo sapiens, 24 h) worked out at 0.31 µM; in data set [1] (Homo sapiens, MCF7, 120 h) it was 0.36 µM. Moreover, the EC25 in data set [3] (Homo sapiens, 24 h) amounted to 0.506 µM; in data set [1] (Homo sapiens, MCF7, 120 h), 0.833 µM. The Emax in data set [3] (setting [4]) is 114%; in data set [1] (Homo sapiens) it was 110%.

As for `Clc1ccc(-c2ccccc2Cl)cc1` [PCB #8, 2,4′-dichlorobiphenyl (PCB #8)], in data set [1] (ESCREEN), the “Signs of toxicity (in words)” value is recorded as “None” and the “Signs of estrogenicity (in words)” value is “None”. Moreover, in data set [2], the “Modulation … (in words)” value was “no indication of negative modulation” and the Observed modulation result is “None”.

As to `Clc1ccc(-c2cc(Cl)c(Cl)c(Cl)c2)cc1Cl` [PCB #126, 3,3′,4,4′,5-pentachlorobiphenyl (PCB #126)], the “Signs of toxicity (in words)” value in data set [1] (ESCREEN) is “None”. Further, in data set [1] (ESCREEN, ‘Active’ = positive signal clearly distinguishable from assay variability and noise), the “Signs of estrogenicity: Active at concentration” value is listed as “Active at 10 µM or higher”. In data set [2], the “Modulation … (in words)” value is recorded as “clear negative modulation”; the Observed modulation result is “Clear negative”; the “Concentration at which suppression of the ESCREEN response to REFmix began” value was 1–10 nM and around 10 nM. For the same compound, the “Suppression of the ESCREEN response to REFmix” value in data set [2] (at 100 nM, plateau at that level up to 10 µM) is 50%.

As to `CCCOC(=O)c1ccc(O)cc1` [Propylparaben], the EC10 in data set [3] (Homo sapiens, 24 h) was determined as 1.3 µM; in data set [1] (Homo sapiens, MCF7, 120 h), 0.997 µM. The EC25 was found to be 2.21 µM in data set [3] (Homo sapiens, 24 h) and 2.16 µM in data set [1] (Homo sapiens, MCF7, 120 h). Further, the Emax is 260% in data set [3] (setting [4]) and 109% in data set [1] (Homo sapiens).

With Tonalide (AHTN), the 10% effect concentration (EC10) came out at 3.61 µM in data set [3] (ERLUX, concentration producing 10% effect relative to positive control 1 nM estradiol, 24 hours) and 1.97 µM in data set [1] (ESCREEN, concentration provoking 10% effect relative to positive control 25 nM estradiol, 120 hours). The EC25 in data set [3] (ERLUX, concentration producing 25% effect relative to positive control 1 nM estradiol, 24 hours) was 206 µM; in data set [1] (ESCREEN, concentration provoking 25% effect relative to positive control 25 nM estradiol, 120 hours), 6.13 µM. Further, the “Concentration Response Function θ^∧ max” value in data set [3] (ERLUX, estimated maximal model asymptote, effect relative to positive control (1 nM estradiol)) is reported as 0.28; in data set [1] (ESCREEN, estimated maximal model asymptote, effect relative to positive control (25 nM estradiol)), 0.46.

Source of the values: PMC3422259, “Additive Mixture Effects of Estrogenic Chemicals in Human Cell-Based Assays Can Be Influenced by Inclusion of Chemicals with Differing Effect Profiles” (PLoS ONE, 2012).
